Values quoted from earlier work in patent publication US20080004343A1, “Stable polymorphs of (E)-N,N-diethyl-2-cyano-3-(3,4-dihydroxy-5-nitrophenyl)acrylamide” (Wockhardt Limited, priority 2006, published 2008).

| Compound | stability under the influence of heat or acids | isomerization to polymorphic form A on standing (standing at room temperature) |
| --- | --- | --- |
| CCN(CC)C(=O)C(C#N)=Cc1cc(O)c(O)c([N+](=O)[O-])c1 [(Z)-isomer, N,N-diethyl-2-cyano-3-(3,4-dihydroxy-5-nitrophenyl)acrylamide] | unstable |  |
| CCN(CC)C(=O)/C(C#N)=C/c1cc(O)c(O)c([N+](=O)[O-])c1 [polymorphic form B, (E)-N,N-diethyl-2-cyano-3-(3,4-dihydroxy-5-nitrophenyl)acrylamide] | unstable | isomerizes slowly to the polymorphic form A |
